Measured values: patent publication US7713994B2 (Wyeth LLC, priority 2005, dated 2010)

Tests used:
[1] = system: HCT-116; experiment: Cytotoxicity assay (SRB), HCT-116; type: cell-based; conditions: Homo sapiens, HCT-116, 72 h, HCT116 cells, SRB, three days; read-out: In Vitro Cellular Activity IC50 HCT116
Summary of the method: (§1)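 Protein staining with sulforhodamine B after cold TCA fixation served as the survival endpoint (A540, relative to untreated cells). Before staining, cells were incubated with compound at 37 °C, 7% CO2 for 3 days, or 6 days for BT474.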

[2] = molecular target: T1, Cyclin D1/CDK6 (Homo sapiens, UniProt Q00534); experiment: Cyclin D1/CDK6 Elisa; type: biochemical; conditions: 200 μM ATP
T1 construct: made in house; host or cells: Sf9 insect cells, recombinant baculovirus
Protocol: Cyclin D1/CDK6 was expressed in insect cells (Sf9) infected with recombinant baculovirus and partially purified using ammonium sulfate fractionation. Test compounds were diluted in 20% DMSO/20 mM HEPES, pH 7.5 and serial dilutions were prepared (5 concentrations; 0.005-50 µM). High-binding ELISA microtiter plates (Costar) were coated with the kinase substrate (glutathione-S-transferase (GST) fusion of C-terminal fragment of the retinoblastoma susceptibility gene product (Rb). Non-specific binding sites were blocked with Superblock in Tris-buffered saline (TBS; Pierce). Kinase reactions contained the test inhibitor, 200 μM ATP, 0.5 mg/ml bovine serum albumin (BSA; Sigma), and 0.1 μl cyclin D1/cdk 6. Reaction volumes were adjusted to 30 μl with kinase assay buffer (50 mM HEPES, pH 7.5, 10 mM MgCl2, 5% glycerol, 10 mM 2-mercaptoethanol), and plates were incubated at 30° C. for 1 hour. Reactions were terminated by aspiration, and non-specific sites were blocked with blocking buffer (TBS containing 0.1% Tween-20 and 5% nonfat dry milk). Phoshporylation of the substrate was detected using phospho-Rb specific antibodies (ser-795) (Cell Signalling Technologies) and anti-rabbit IgG/horseradish peroxidase conjugates (Amersham Life Science) using TMB as substrate. Colourimetric reactions were stopped with 2N sulphuric acid and the absorbance was measured at 450 nm (Molecular Devices). IC50 values were determined from inhibition plots.

[3] = molecular target: T2, cyclin E/CDK2 enzyme (Homo sapiens, UniProt P24941); experiment: CDK2 ELISA kinase assay (phospho-Rb ser 795 detection); type: biochemical; conditions: In Vitro Enzyme Assays, read-out: CDK2 IC50
T2 construct: made in house; host or cells: Sf9 insect cells, recombinant baculovirus
Summary of the method: (§2)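 ELISA format: plate-bound GST-Rb, 200 μM ATP, Sf9 cyclin/CDK enzyme, 1 h at 30° C; then anti-pRb Ser795 primary overnight at 4° C, HRP secondary, TMB. IC50 after no-substrate background subtraction.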

[4] = molecular target: T3, cyclin D1/cdk 4 enzyme (Homo sapiens, UniProt P11802); experiment: CDK4 ELISA kinase assay (phospho-Rb ser 795 detection); type: biochemical; conditions: In Vitro Enzyme Assays, 200 μM ATP, read-out: CDK4 IC50
T3 construct: made in house; host or cells: Sf9 insect cells, recombinant baculovirus
Summary of the method: as §2

[5] = molecular target: T4, cyclin B/CDK1 enzyme (Homo sapiens, UniProt P06493); experiment: CDK1 ELISA kinase assay (phospho-Rb ser 795 detection); type: biochemical; conditions: In Vitro Enzyme Assays, read-out: CDK1 IC50
T4 construct: purchased New England BioLabs; host or cells: Sf9 insect cells, recombinant baculovirus
Summary of the method: as §2

[6] = system: LoVo; experiment: Cytotoxicity assay (SRB), LoVo; type: cell-based; conditions: Homo sapiens, LoVo, 72 h, LoVo cells, SRB, three days; read-out: In Vitro Cellular Activity IC50 LOVO
Summary of the method: as §1

[7] = system: BT474; experiment: Cytotoxicity assay (SRB), BT474; type: cell-based; conditions: Homo sapiens, BT-474, 144 h, BT474 cells, SRB, 6 days; read-out: In Vitro Cellular Activity IC50 BT474
Summary of the method: as §1

[8] = system: MCF-7; experiment: Cytotoxicity assay (SRB), MCF-7; type: cell-based; conditions: Homo sapiens, MCF7, 72 h, MCF-7 cells, SRB, three days; read-out: In Vitro Cellular Activity IC50 MCF-7
Summary of the method: as §1

[9] = molecular target: T5, IGF1-receptor kinase (Homo sapiens, UniProt P08069); experiment: IGF1-R kinase assay (96-well FRET Lance); type: biochemical; conditions: for IC50: 100 micromolar ATP, read-out: Igfr ic50
T5 construct: Purified GST-IGFR; purified Bis-IGFR and Tris-IGFR; fused on or other part: GST with a thrombin cleavage site, removed in the Bis-IGFR and Tris-IGFR forms
Description: • TITLE: 96-well assay for inhibitors of IGF1-receptor kinase activity • SHORT TITLE: IGF1-R kinase assay • PURPOSE: Identify inhibitors of IGF-1 receptor kinase activity • MATERIALS AND METHODS: Overview: This is a 96-well FRET (Lance) tyrosine kinase assay. • Materials: • Purified GST-IGFR; purified Bis-IGFR and Tris-IGFR; expressed in ExpresSF insect cells. Bis and Tris IGFR are made by phosphorylating the IGFR in the presence of ATP and Mg2+, followed by thrombin cleavage to remove the GST-thrombin cleavage site, and purification by HPLC. The Bis and tris IGFR are phosphorylated on two (bis) or all three tyrosines (tris) in the activation loop. • Biotinylated peptide with a sequence corresponding to the sequence surrounding the autophosphorylation sites in IGF1-R Biotin-NH2-[…]-OH (Anaspec) • Europium-conjugated phosphotyrosine antibody (PT66) (Perkin-Elmer). • Surelight APC (Perkin-elmer) • Plates: 96-well Assay plates (polypropylene plates, natural color) • 96-well-Lance plates (Microfluor 2 black plates; Cat # 7205; Thermolabsystems. • ATP: (Amersham Pharmacia Cat # 27-2056-01), 100 mM stock. • IGFR Lance Protocol (96-well format) • Procedure: • Reagents: • Kinase Buffer (10×): • 0.5 M Hepes, pH 7.5 rt • 0.1 M MgCl2 • Quench Buffer (to be added straight, 1:1, to r×n mix): • 50 mM Hepes, pH 7.5 rt • 50 mM EDTA • Lance Detection Buffer: • 20 mM Tris-HCl, pH 7.5 rt • 0.15 M NaCl-150 • 150 ug/ml BSA (Sigma Cat# A-7284) • Eu-labeled phosphotyrosine antibody PT66 (Perkin-Elmer): 1:4000 dilution of 200 μg/ml stock • Streptavidin-APC (Perkin Elmer): 1/250 (4 microgram/ml final) • ATP (Amersham Pharmacia cat #27-2056-01) 100 mM stock: Dilute to 1 mM (10×) in water. […] Transfer 12.5[…] of the kinase reaction to the antibody detection plate. Allow antibody to react for 1 h at rt in the dark. Then read in Victor with an excitation filter of 340 nm and an emission filter of 665 nm. • Compound additions: • When Example compounds are tested, they are added from a 10% DMSO/50 mM Hepes (pH 7.5) 10× stock. 5 microliters of compound in this buffer are added to the enzyme-peptide-buffer mix. After 10′ incubation at room temperature, ATP is added to start the reaction. A no ATP background control is included in the assay. • […] OF RESULTS: Data are analyzed as follows: % Inhibition={[Sample cpm−Bkg cpm]/[No cmpd cpm−Bkg cpm]}×100%. The biological activity of representative Examples of the invention is reported in Table VII as: 0.2 µM≦x≦10 µM or % inhibition@10 µM.

T5 sequence (P08069 999-1274 limits assumed): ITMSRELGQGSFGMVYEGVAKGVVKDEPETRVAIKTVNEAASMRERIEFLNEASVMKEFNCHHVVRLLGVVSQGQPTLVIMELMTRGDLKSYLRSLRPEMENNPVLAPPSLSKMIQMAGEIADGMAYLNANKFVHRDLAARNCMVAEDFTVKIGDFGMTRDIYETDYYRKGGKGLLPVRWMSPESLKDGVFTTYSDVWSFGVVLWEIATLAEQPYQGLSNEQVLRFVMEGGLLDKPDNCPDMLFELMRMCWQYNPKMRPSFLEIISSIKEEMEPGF
T1 sequence (Q00534 whole entry, species assumed): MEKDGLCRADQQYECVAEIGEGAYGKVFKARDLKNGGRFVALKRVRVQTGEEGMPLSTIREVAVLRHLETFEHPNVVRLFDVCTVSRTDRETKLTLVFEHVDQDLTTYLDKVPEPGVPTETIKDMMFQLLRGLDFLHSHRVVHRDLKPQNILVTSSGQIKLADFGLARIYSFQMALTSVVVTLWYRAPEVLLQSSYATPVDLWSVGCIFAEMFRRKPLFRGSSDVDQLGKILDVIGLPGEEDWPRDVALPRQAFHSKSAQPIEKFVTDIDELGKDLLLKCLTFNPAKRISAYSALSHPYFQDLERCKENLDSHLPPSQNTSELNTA
T1 sequence (P24385 whole entry partner, species assumed): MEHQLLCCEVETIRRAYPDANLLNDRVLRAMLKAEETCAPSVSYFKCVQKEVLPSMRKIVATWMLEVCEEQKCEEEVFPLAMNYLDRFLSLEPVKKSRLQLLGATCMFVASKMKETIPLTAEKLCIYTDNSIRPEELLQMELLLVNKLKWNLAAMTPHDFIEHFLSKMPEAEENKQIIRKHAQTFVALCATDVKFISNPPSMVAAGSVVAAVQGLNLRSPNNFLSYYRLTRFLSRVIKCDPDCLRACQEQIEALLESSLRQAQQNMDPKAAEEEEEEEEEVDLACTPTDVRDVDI
T3 sequence (P11802 whole entry, species assumed): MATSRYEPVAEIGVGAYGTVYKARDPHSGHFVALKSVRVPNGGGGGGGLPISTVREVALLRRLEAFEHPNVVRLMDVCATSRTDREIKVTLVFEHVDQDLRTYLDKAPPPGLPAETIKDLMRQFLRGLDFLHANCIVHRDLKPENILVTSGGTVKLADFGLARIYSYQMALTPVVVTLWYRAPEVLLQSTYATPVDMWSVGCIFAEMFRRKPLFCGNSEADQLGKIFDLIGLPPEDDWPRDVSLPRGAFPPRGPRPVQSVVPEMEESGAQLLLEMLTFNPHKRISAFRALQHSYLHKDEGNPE
T3 sequence (P24385 whole entry partner, species assumed): as the sequence (P24385 whole entry partner, species assumed) above
T4 sequence (P06493 whole entry): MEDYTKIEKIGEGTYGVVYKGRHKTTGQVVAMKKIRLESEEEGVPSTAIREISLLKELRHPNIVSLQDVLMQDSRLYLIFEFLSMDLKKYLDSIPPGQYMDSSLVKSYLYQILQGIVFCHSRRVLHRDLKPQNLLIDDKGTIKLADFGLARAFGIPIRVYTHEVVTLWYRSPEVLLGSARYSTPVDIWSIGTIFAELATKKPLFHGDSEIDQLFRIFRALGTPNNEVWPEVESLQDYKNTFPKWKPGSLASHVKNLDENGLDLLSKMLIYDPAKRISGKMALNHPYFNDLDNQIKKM
T4 sequence (P14635 whole entry partner): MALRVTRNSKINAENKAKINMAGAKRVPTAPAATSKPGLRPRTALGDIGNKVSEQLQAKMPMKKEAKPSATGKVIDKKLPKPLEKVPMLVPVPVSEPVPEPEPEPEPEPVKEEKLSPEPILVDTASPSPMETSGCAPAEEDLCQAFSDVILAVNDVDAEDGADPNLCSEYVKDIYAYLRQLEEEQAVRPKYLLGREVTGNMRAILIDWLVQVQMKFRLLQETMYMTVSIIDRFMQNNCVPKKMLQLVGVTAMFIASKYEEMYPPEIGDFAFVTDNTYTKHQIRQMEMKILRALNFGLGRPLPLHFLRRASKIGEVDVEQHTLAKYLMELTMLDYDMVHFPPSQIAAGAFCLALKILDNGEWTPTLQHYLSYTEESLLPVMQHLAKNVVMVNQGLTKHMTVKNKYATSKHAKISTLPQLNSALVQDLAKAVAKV

SMILES	IC50 [1]	IC50 [2]	IC50 [3]	IC50 [4]	melting point	IC50 [5]	IC50 [6]	IC50 [7]	IC50 [8]	IC50 [9]	Igfr % Inhibition at 10 uM ([9]; 10 uM compound)
O=C1NC(=O)c2ccc(Cl)cc2/C1=C/Nc1ccc(CN2CCCCC2)cc1 [Example 55, (4Z)-6-Chloro-4-({[4-(piperidin-1-ylmethyl)phenyl]amino}methylene)isoquinoline-1,3(2H,4H)-dione]	5700 nM	0.12 µM	> 50000 nM	2500 nM	225 to 226 °C	> 50000 nM	7700 nM	11000 nM	7000 nM	–	–
COc1ccc(CN/C=C2\C(=O)NC(=O)c3ccc(-n4cccc4)cc32)cc1O [Example 71]	4700 nM	0.001 µM	–	4 nM	252 to 253 °C	9700 nM	3000 nM	3800 nM	7800 nM	–	–
O=C1NC(=O)c2ccc(-n3cccc3)cc2/C1=C/Nc1ccc(CN2CCCCC2)cc1 [Example 74]	2700 nM	0.02 µM	–	–	207 to 208 °C	> 50000 nM	2400 nM	3300 nM	2100 nM	–	–
COc1ccc(CN/C=C2\C(=O)NC(=O)c3ccc(I)cc32)cc1O [Example 80, (4Z)-6-Iodo-4-{[(3-hydroxy-4-methoxybenzyl)amino]methylene}isoquinoline-1,3(2H,4H)-dione]	2000 nM	0.002 µM	870 nM	10 nM	–	6000 nM	1500 nM	1700 nM	3700 nM	–	–
CN1CCN(c2ccc(N/C=C3\C(=O)NC(=O)c4ccc(I)cc43)cc2)CC1 [Example 81, (4Z)-6-Iodo-4-({[4-(4-methylpiperazin-1-yl)phenyl]amino}methylene)isoquinoline-1,3(2H,4H)-dione]	–	0.1 µM	> 50000 nM	480 nM	–	> 50000 nM	5100 nM	2800 nM	–	–	–
O=C1NC(=O)c2ccc(I)cc2/C1=C/Nc1ccc(CN2CCCCC2)cc1 [Example 82, (4Z)-6-Iodo-4-({[4-(piperidin-1-ylmethyl)phenyl]amino}methylene)isoquinoline-1,3(2H,4H)-dione]	2700 nM	0.03 µM	20400 nM	300 nM	202 to 203 °C	> 50000 nM	3100 nM	600 nM	1000 nM	–	–
COc1ccc(CN/C=C2\C(=O)NC(=O)c3cccc(Br)c32)cc1O [Example 84, (4Z)-5-Bromo-4-{[(3-hydroxy-4-methoxybenzyl)amino]methylene}isoquinoline-1,3(2H,4H)-dione]	3100 nM	0.07 µM	3100 nM	940 nM	204 to 206 °C	8100 nM	4600 nM	2100 nM	6700 nM	–	–
COc1cc(CN/C=C2\C(=O)NC(=O)c3ccc(-c4ccccc4)cc32)cc(O)c1OC [Example 86]	4500 nM	0.001 µM	> 50000 nM	2 nM	250 to 251 °C	> 50000 nM	3700 nM	3200 nM	5100 nM	–	–
CC(=O)c1cccc(Nc2ccc3c(c2)/C(=C/Nc2ccc(CN(C)C)cc2)C(=O)NC3=O)c1 [Example 909, (4Z)-6-[(3-acetylphenyl)amino]-4-[({4-[(dimethylamino)methyl]phenyl}amino)methylene]isoquinoline-1,3(2H,4H)-dione]	–	–	–	–	–	–	–	–	–	887 nM	–
CC(=O)c1cccc(Nc2ccc3c(c2)/C(=C/Nc2ccc(N4CC(C)NC(C)C4)cc2)C(=O)NC3=O)c1 (stereo not drawn) [Example 910, (4Z)-6-[(3-acetylphenyl)amino]-4-({[4-(3,5-dimethylpiperazin-1-yl)phenyl]amino}methylene)isoquinoline-1,3(2H,4H)-dione]	–	–	–	–	–	–	–	–	–	540 nM	–
CCN(CC)Cc1ccc(N/C=C2\C(=O)NC(=O)c3ccc(Nc4ccc(C)cc4)cc32)cc1 [Example 911, (4Z)-4-[({4-[(diethylamino)methyl]phenyl}amino)methylene]-6-[(4-methylphenyl)amino]isoquinoline-1,3(2H,4H)-dione]	–	–	–	–	–	–	–	–	–	1160 nM	–
O=C1NC(=O)c2ccc(Nc3ccc4[nH]ccc4c3)cc2/C1=C/Nc1ccc(CN2CCCCC2)cc1 [Example 912]	–	–	–	–	–	–	–	–	–	–	9%
O=C1NC(=O)c2ccc(Nc3cccc4ncccc34)cc2/C1=C/Nc1ccc(CN2CCCCC2)cc1 [Example 913, (4Z)-4-({[4-(piperidin-1-ylmethyl)phenyl]amino}methylene)-6-(quinolin-5-ylamino)isoquinoline-1,3(2H,4H)-dione]	–	–	–	–	–	–	–	–	–	6160 nM	–
COc1cc(CN/C=C2\C(=O)NC(=O)c3ccc(Br)cc32)cc(O)c1OC [compound 78]	> 50000 nM	0.002 µM	> 50000 nM	7 nM	–	> 50000 nM	> 50000 nM	42000 nM	32500 nM	–	–
